The source of these data is patent US20180215781A1, “BETUIN DERIVATIVES FOR PREVENTING OR TREATING HIV INFECTIONS” (GLAXOSMITHKLINE INTELLECTUAL PROPERTY (NO.2) LIMITED, priority 2015, published 2018).

pEC50: −log10 of the molar value. Counter-ions that a name gives are not always drawn.

For one experiment, the system named is V370A. The experiment in a line: MT4 Cell Antiviral Assay, V370A. The format is cell-based, HIV-1. The note with it: Human immunodeficiency virus 1, MT4, read-out: EC50V370A.
Another experiment relates to NL4-3 wt. The experiment is described as follows: MT4 Cell Antiviral Assay, NL4-3 wt. The format is cell-based, HIV-1. The note with it: Human immunodeficiency virus 1, NL43, HIV MT4 Antiviral Cell Assay of Example 11.
Another experiment deals with HIV. The note with it: cited from earlier work.

As to `CC(C)C1=C2[C@H]3CC[C@@H]4[C@@]5(C)CC=C(C6=CCC(C(=O)O)CC6)C(C)(C)[C@@H]5CC[C@@]4(C)[C@]3(C)CC[C@@]2([C@@H](O)CN(CC2CCC2)C(=O)CN2CCCC2)CC1=O` (stereo partly drawn) [Example 7, 4-((3aR,5aR,5bR,7aR,11aS, 11bR,13aS)-3a-((R)-2-(N-(cyclobutylmethyl)-2-(pyrrolidin-1-yl)acetamido)-1-hydroxyethyl)-1-isopropyl-5a,5b,8,8,11a-pentamethyl-2-oxo-3,3a,4,5,5a,5b,6,7,7a,8, 11,11a,11b,12,13,13a-hexadecahydro-2H-cyclopenta[a]chrysen-9-yl)cyclohex-3-enecarboxylic acid], the pEC50 was 8.39 in the experiment on V370A and 8.24 in the experiment with NL4-3 wt.
The like results for `CC(C)C1=C2[C@H]3CC[C@@H]4[C@@]5(C)CC=C(C6=CCC(C(=O)O)CC6)C(C)(C)[C@@H]5CC[C@@]4(C)[C@]3(C)CC[C@@]2([C@@H](O)CNCC2CC2)CC1=O` (stereo partly drawn) [Example 10, 4-((3aR,5aR,5bR,7aR,11aS, 11bR,13aS)-3a-((R)-2-((cyclopropylmethyl)amino)-1-hydroxyethyl)-1-isopropyl-5a,5b,8,8,11a-pentamethyl-2-oxo-3,3a,4,5,5a,5b,6,7,7a,8, 11,11a,11b,12,13,13a-hexadecahydro-2H-cyclopenta[a]chrysen-9-yl)cyclohex-3-enecarboxylic acid] were, in that order, 4.60 and 8.03.
Turning to `COCC(=O)N(CC1CCC1)C[C@H](O)[C@@]12CC[C@]3(C)[C@H](CC[C@@H]4[C@@]5(C)CC=C(C6=CCC(C(=O)O)CC6)C(C)(C)[C@@H]5CC[C@]43C)C1=C(C(C)C)C(=O)C2` (stereo partly drawn) [Example 6, 4-((3aR,5aR,5bR,7aR,11aS, 11bR,13aS)-3a-((R)-2-(N-(cyclobutylmethyl)-2-methoxyacetamido)-1-hydroxyethyl)-1-isopropyl-5a,5b,8,8,11a-pentamethyl-2-oxo-3,3a,4,5,5a,5b,6,7,7a,8, 11,11a,11b,12,13,13a-hexadecahydro-2H-cyclopenta[a]chrysen-9-yl)cyclohex-3-enecarboxylic acid], the pEC50 in the experiment on V370A is 7.69; with NL4-3 wt it was 8.00.
`CC(C)C1=C2[C@H]3CC[C@@H]4[C@@]5(C)CC=C(C6=CCC(C(=O)O)CC6)C(C)(C)[C@@H]5CC[C@@]4(C)[C@]3(C)CC[C@@]2([C@@H](O)CN(CCN(C)C)Cc2ccc(Cl)cc2)CC1=O` (stereo partly drawn) [Example 9, 4-((3aR,5aR,5bR,7aR,11aS, 11bR,13aS)-3a-((R)-2-((4-chlorobenzyl)(2-(dimethylamino)ethyl)amino)-1-hydroxyethyl)-1-isopropyl-5a,5b,8,8,11a-pentamethyl-2-oxo-3,3a,4,5,5a,5b,6,7,7a,8, 11,11a,11b,12,13,13a-hexadecahydro-2H-cyclopenta[a]chrysen-9-yl)cyclohex-3-enecarboxylic acid dihydrochloride]: the pEC50 is 7.97 in the experiment with V370A and 8.17 in the experiment with NL4-3 wt.
`CC(C)C1=C2[C@H]3CC[C@@H]4[C@@]5(C)CC=C(C6=CCC(C(=O)O)CC6)C(C)(C)[C@@H]5CC[C@@]4(C)[C@]3(C)CC[C@@]2([C@@H](O)CN(CC2CC2)C(=O)CN2CCCC2=O)CC1=O` (stereo partly drawn) [Example 4, 4-((3aR,5aR,5bR,7aR,11aS, 11bR,13aS)-3a-((R)-2-(N-(cyclopropylmethyl)-2-(2-oxopyrrolidin-1-yl)acetamido)-1-hydroxyethyl)-1-isopropyl-5a,5b,8,8,11a-pentamethyl-2-oxo-3,3a,4,5,5a,5b,6,7,7a,8, 11,11a,11b,12,13,13a-hexadecahydro-2H-cyclopenta[a]chrysen-9-yl)cyclohex-3-enecarboxylic acid]: the values for the pEC50 in the experiment on V370A and in the experiment on NL4-3 wt were 7.68 and 8.15, respectively.
For `CC(C)C1=C2[C@H]3CC[C@@H]4[C@@]5(C)CC=C(C6=CCC(C(=O)O)CC6)C(C)(C)[C@@H]5CC[C@@]4(C)[C@]3(C)CC[C@@]2([C@@H](O)CN(CC2CC2)C(=O)CN(C)C)CC1=O` (stereo partly drawn) [Example 2, 4-((3aR,5aR,5bR,7aR,11aS, 11bR,13aS)-3a-((R)-2-(N-(cyclopropylmethyl)-2-(dimethylamino)acetamido)-1-hydroxyethyl)-1-isopropyl-5a,5b,8,8,11a-pentamethyl-2-oxo-3,3a,4,5,5a,5b,6,7,7a,8, 11,11a,11b,12,13,13a-hexadecahydro-2H-cyclopenta[a]chrysen-9-yl)cyclohex-3-enecarboxylic acid] the same measures were 7.95 and 8.27.
The like results for `COCC(=O)N(CC1CC1)C[C@H](O)[C@@]12CC[C@]3(C)[C@H](CC[C@@H]4[C@@]5(C)CC=C(C6=CCC(C(=O)O)CC6)C(C)(C)[C@@H]5CC[C@]43C)C1=C(C(C)C)C(=O)C2` (stereo partly drawn) [Example 1, 4-((3aR,5aR,5bR,7aR,11aS, 11bR,13aS)-3a-((R)-2-(N-(cyclopropylmethyl)-2-methoxyacetamido)-1-hydroxyethyl)-1-isopropyl-5a,5b,8,8,11a-pentamethyl-2-oxo-3,3a,4,5,5a,5b,6,7,7a,8, 11,11a,11b,12,13,13a-hexadecahydro-2H-cyclopenta[a]chrysen-9-yl)cyclohex-3-enecarboxylic acid] were, in that order, 8.05 and 8.10.
`CC(C)C1=C2[C@H]3CC[C@@H]4[C@@]5(C)CC=C(C6=CCC(C(=O)O)CC6)C(C)(C)[C@@H]5CC[C@@]4(C)[C@]3(C)CC[C@@]2([C@@H](O)CN(CC2CC2)C(=O)CN2CCCC2)CC1=O` (stereo partly drawn) [Example 3, 4-((3aR,5aR,5bR,7aR,11aS, 11bR,13aS)-3a-((R)-2-(N-(cyclopropylmethyl)-2-(pyrrolidin-1-yl)acetamido)-1-hydroxyethyl)-1-isopropyl-5a,5b,8,8,11a-pentamethyl-2-oxo-3,3a,4,5,5a,5b,6,7,7a,8, 11,11a,11b,12,13,13a-hexadecahydro-2H-cyclopenta[a]chrysen-9-yl)cyclohex-3-enecarboxylic acid]: the values for the pEC50 in the experiment on V370A and with NL4-3 wt were 8.43 and 8.48, respectively.
Take `C=C(C)[C@@H]1CC[C@]2(C(=O)O)CC[C@]3(C)[C@H](CC[C@@H]4[C@@]5(C)CC[C@H](OC(=O)CC(C)(C)C(=O)O)C(C)(C)[C@@H]5CC[C@]43C)[C@@H]12` [Bevirimat]: the “reduced HIV viral load, mean” value in the experiment on HIV (patients with trough levels >=20 μg/mL and without key baseline Gag polymorphisms at Q369, V370 or T371) is on record as 1.3 log10/mL. Also, the “viral load reductions versus patients without Gag polymorphisms” value in the experiment with HIV (users with Gag polymorphisms at Q369, V370 or T371) is reported as “significantly lower load reductions”.
